We go through eleven compounds from patent US20050020550A1, “Selective testicular 11beta-HSD inhibitors and methods of use thereof” (priority 2003, published 2005).

Series [1] deals with 11β-HSD enzyme activity. In words: Conversion of 3H-corticosterone to 11-dehydrocorticosterone by aortic rings. Details: species or system rat. The settings on record: 24 hrs, 3H-corticosterone (10 nM) plus antisense (3 μM), compared to nonsense oligomers. As for the experimental part:
The effects of 11β-HSD1 and 11β-HSD2 antisense on the inter-conversion of ^3H-corticosterone and ^3H-11-dehydro-corticosterone by aortic rings was also determined. Rings (2-3 mm) obtained in a similar manner as those in the contraction studies, were incubated in 1 ml DMEM/F12 media containing 1% FBS at 37° C. under 95% O2-5% CO2 in 24-well culture plates. […] The amount of ^3H-11-dehydro-corticqsterone in the incubation medium after 24 hrs was then measured. The effects of 11β-HSD1 antisense/nonsense were measured in quadruplicate (n=6 aortic rings per well) and the effects of 11β-HSD2 antisense/nonsense in duplicate (n=8 aortic rings per well), • (ii) ^3H-11-dehydro-corticosterone (10 nmol/L)±11β-HSD1 antisense (3 μmol/L); this experiment was performed in duplicate (n=10 aortic rings per well). Control groups were incubated with the appropriate nonsense oligomer. ^3H-corticosterone in the incubation medium after 24 hrs was then measured. In this experiment, aortic rings were also analyzed for ^3H-corticosterone content. […]
(§1) Incubation media was collected, ran through a Sep-Pak and eluted with 3 mls of methanol, the eluate was then dried under nitrogen and reconstituted in 500:1 methanol. […] Steroids were observed by monitoring radioactivity on-line with a Packard Radiomatic Flo-One/Beta Series A-500 counter connected to a Dell Optiflex 425 S/L computer. […]

Series [2] has as its system rat aortic rings. The experiment in a line: Contractile response of rat aortic rings to phenylephrine. The settings on record: for contractile response to phenylephrine: rings incubated 24 hours with corticosterone (10 nmol/L) and antisense oligomers (3 μmol/L); for effect of the steroid on contractile responses to phenylephrine: rat aortic rings incubated with the steroid, compared to controls. The protocol:
Male Sprague-Dawley (150-200 g) rats were anesthetized with pentobarbital (50 mg/kg IP), and a median sternotomy was performed followed by the rapid removal of the thoracic aorta. The adventitia was removed, but the endothelium was left intact. The aorta was cut into 2-3 mm rings and individual rings were placed into a single well of a twenty four well culture plate and incubated at 37° C. under 95% O2-5% CO2. Each well contained 1 mL of DMEM/F12 containing 1% fetal bovine serum, streptomycin (100 μg/ml), penicillin (100 units/ml) and amphotericin (0.25 μg/ml). Aortic rings were incubated for 24 hours prior to contractility measurements with the following combinations of steroids, and antisense/nonsense oligonucleotides (3 μmol/L): • Corticosterone (10 nmol/L)+11β-HSD2 antisense or 11β-HSD2 nonsense oligomer • Corticosterone (10 nmol/L)+11β-HSD1 antisense or 11β-HSD1 nonsense oligomer • In 11-dehydrocorticosterone experiments with vehicle alone • 11-dehydrocorticosterone (100 nmol/L)+11β-HSD1 Antisense or 11β-HSD1 nonsense oligomer
Antisense phosphorothioate oligonucleotides, targeted to block either 11β-HSD2 or 11β-HSD1 gene expression, were obtained from Research Genetics, Huntsville Ala. Antisense oligomers complementary to 20 bp sequences spanning the ribosome binding/translation start site were used. Oligomer sequences were: 5′-CATAACTGCCGTCCAACAGC-3′ (SEQ ID No.: 2) for 11β-HSD1 Antisense and 5′-AGCCCAGCGCTCCATGACTT-3′ (SEQ ID No. 3) for 11β-HSD2 antisense. In control experiments the corresponding sense sequence was used as the nonsense oligomer. Antisense and nonsense oligomers were added directly to each well at 20 μg/10:1 sterile H2O per well for a final concentration of 3 μmol/L.
For contraction measurements, aortic rings were suspended by tungsten wires with 1 g of tension and placed in a vessel bath containing serum free DMEM/F 12 media at 37° C. aerated with 95% O2-5% CO2, at pH 7.4. Vessels were equilibrated for 20 minutes and then tested with phenylephrine (1 nmol/L−10 μmol/L). Although phenylephrine is structurally not a catecholamine, it is considered to be a functional catecholamine as it activates […]. Due to its favorable stability characteristics, it is widely used as a catecholamine substitute in experiments of this nature. The intensity of contraction was assessed by use of a Narishige micromanipulator and model FT03 force transducer (Grass Instrument Co. West Warwick, R.I.). Measurements were recorded on computer using the Labview 4.1 Virtual Instrument System (National Instruments, Austin, Tex.).

The target in series [3] is T1, 11β-HSD2 Dehydrogenase (Homo sapiens, UniProt P80365).
T1 sequence (P80365 1-405): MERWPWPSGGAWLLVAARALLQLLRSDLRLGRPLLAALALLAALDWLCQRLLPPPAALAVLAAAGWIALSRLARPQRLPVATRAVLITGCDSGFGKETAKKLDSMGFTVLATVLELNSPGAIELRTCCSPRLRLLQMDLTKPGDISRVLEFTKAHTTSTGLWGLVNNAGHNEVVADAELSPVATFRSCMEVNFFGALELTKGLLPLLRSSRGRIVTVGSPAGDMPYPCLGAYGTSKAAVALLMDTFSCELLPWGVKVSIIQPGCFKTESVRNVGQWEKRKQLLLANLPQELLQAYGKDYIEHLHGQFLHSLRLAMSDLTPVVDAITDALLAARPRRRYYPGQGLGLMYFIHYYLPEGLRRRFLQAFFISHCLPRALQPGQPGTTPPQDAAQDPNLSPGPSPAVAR
In words: Inhibition of 11β-HSD2 dehydrogenase (Table 1). It is filed as biochemical.

In series [4] the target is T2, 11β-HSD1 Reductase (Rattus norvegicus, UniProt P16232).
T2 construct: an enzyme present in testicular Leydig cells; endogenous in cells; host or cells: freshly prepared rat Leydig cells
The experiment in a line: Inhibition of 11β-HSD1 reductase (Table 1). It is filed as cell-based.

Series [5] concerns the target T3, 11β-HSD1 Dehydrogenase (Rattus norvegicus, UniProt P16232).
T3 construct: an enzyme present in testicular Leydig cells; endogenous in cells; host or cells: freshly prepared rat Leydig cells
In words: Inhibition of 11β-HSD1 dehydrogenase (Table 1). It is filed as cell-based.

For series [6], the system named is 11β-HSD1-reductase activity. In words: Conversion of 3H-11-dehydrocorticosterone back to corticosterone by aortic rings. The arrangement: species or system rat. As for the experimental part:
The effects of 11β-HSD1 and 11β-HSD2 antisense on the inter-conversion of ^3H-corticosterone and ^3H-11-dehydro-corticosterone by aortic rings was also determined. Rings (2-3 mm) obtained in a similar manner as those in the contraction studies, were incubated in 1 ml DMEM/F12 media containing 1% FBS at 37° C. under 95% O2-5% CO2 in 24-well culture plates. Rings were incubated for 24 hours with: • (i) ^3H-corticosterone ([…])±11β-HSD2 or 11β-HSD1 antisense (3 μmol/L); control groups received nonsense oligomers. The amount of ^3H-11-dehydro-corticqsterone in the incubation medium after 24 hrs was then measured. The effects of 11β-HSD1 antisense/nonsense were measured in quadruplicate (n=6 aortic rings per well) and the effects of 11β-HSD2 antisense/nonsense in duplicate (n=8 aortic rings per well), • (ii) ^3H-11-dehydro-corticosterone (10 nmol/L)±11β-HSD1 antisense (3 μmol/L); this experiment was performed in duplicate (n=10 aortic rings per well). Control groups were incubated with the appropriate nonsense oligomer. ^3H-corticosterone in the incubation medium after 24 hrs was then measured. In this experiment, aortic rings were also analyzed for ^3H-corticosterone content. Rings from duplicate incubations (total n=20) were blotted dry, pooled and homogenized in 50% methanol using a Polytron. The homogenates were then centrifuged, extracted as below using Sep-Paks and injected onto a HPLC system for analysis.
as §1
Corticosterone and phenylephrine were obtained from Sigma (St Louis, Mo.), 11-dehydrocorticosterone from Research Plus (Bayonne, N.J.) and ^3H-steroids from New England Nuclear (Boston, Mass.). Where appropriate, data were expressed as mean±SE and analyzed using ANOVA and the Student's t test with Bonferroni modification. […]

[7] abbreviates: with the 11β-HSD1-reductase inhibitor steroid.

T2 sequence (P16232 whole entry): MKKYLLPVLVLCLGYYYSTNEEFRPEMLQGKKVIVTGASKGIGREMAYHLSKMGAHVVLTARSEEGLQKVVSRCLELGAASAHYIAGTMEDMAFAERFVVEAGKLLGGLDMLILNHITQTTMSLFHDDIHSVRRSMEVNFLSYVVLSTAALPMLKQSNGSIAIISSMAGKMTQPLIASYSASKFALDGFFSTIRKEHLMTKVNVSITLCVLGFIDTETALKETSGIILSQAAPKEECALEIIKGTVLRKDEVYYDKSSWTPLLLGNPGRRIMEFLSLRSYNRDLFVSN
T3 sequence (P16232 whole entry): as above

For “11β-HSD2 antisense: Antisense phosphorothioate oligonucleotide blocking 11β-HSD2 gene expression, 5′-AGCCCAGCGCTCCATGACTT-3′ (antisense AGCCCAGCGCTCCATGACTT; all phosphorothioate, sugars by position and methylation of C not given here; listed as Homo sapiens)”, the “reduction in the conversion of corticosterone to 11-dehydrocorticosterone” value in series [1] was found to be 24%. In addition, the “contractile response to phenylephrine” value in series [2] (compared to nonsense oligomers) is on record as “statistically significant increase”.
Regarding `C[C@]12CC(=O)[C@H]3[C@@H](CCC4=CC(=O)CC[C@@]43C)[C@@H]1CC[C@@H]2C(=O)CO` [11-dehydro-corticosterone, reference compound], the “effect of the steroid on contractile responses to phenylephrine” value in series [2] was “amplifies the contractile responses”.
Consider `C[C@]12CC[C@H](O)C[C@@H]1CC[C@@H]1[C@@H]2[C@@H](O)C[C@]2(C)[C@@H](C(=O)CO)CC[C@@H]12` [3α,5α-reduced- corticosterone], for which, in series [3], the “11β-HSD2 Dehydrogenase (inhibition)” value is “Potent Inhibitor”. Besides, in series [4], the “11β-HSD1 Reductase (inhibition)” value is “No Inhibition”. Moreover, the “11β-HSD1 Dehydrogenase (inhibition)” value in series [5] was “Potent Inhibitor”.
As for “11β-HSD1 antisense: Antisense phosphorothioate oligonucleotide blocking 11β-HSD1 gene expression, 5′-CATAACTGCCGTCCAACAGC-3′ (antisense CATAACTGCCGTCCAACAGC; all phosphorothioate, sugars by position and methylation of C not given here; listed as Homo sapiens)”, in series [6] (incubation medium, 24 hours, antisense compared to nonsense oligomers), the “production of 3H-corticosterone from 3H-11-dehydrocorticosterone” value is “markedly reduced”. Further, in series [6] (pooled aortic ring tissue (n=20), antisense compared to nonsense oligomers), the “production of 3H-corticosterone in aortic ring tissue” value is given as “markedly lower”. Moreover, the “reduction in the conversion of corticosterone to 11-dehydrocorticosterone” value in series [1] was found to be 21%. In addition, the “ability of 11-dehydro-corticosterone to amplify the contractile response to phenylephrine” value in series [2] (rings incubated 24 hours with 11-dehydro-corticosterone (100 nmol/L) and antisense (3 μmol/L), compared to nonsense oligomers) is on record as “attenuated”. In addition, the “contractile response to phenylephrine” value in series [2] (compared to nonsense oligomers) is reported as “significantly increased”.
Consider `C[C@]12C[C@H](O)[C@H]3[C@@H](CCC4=CC(=O)CC[C@@]43C)[C@@H]1CC[C@@H]2C(=O)CO` [corticosterone, reference compound], for which the “effect of the steroid on contractile responses to phenylephrine” value in series [2] is reported as “amplified contractile responses”.
On to `CC(=O)[C@H]1CC[C@@H]2[C@@H]3CCC4=CC(=O)CC[C@]4(C)[C@@H]3C(=O)C[C@]12C` [11-Keto-progesterone], for which the “11β-HSD2 Dehydrogenase (inhibition)” value in series [3] is “Potent Inhibitor”. In addition, the “metabolism of 11-dehydro-corticosterone back to corticosterone” value in series [6] (setting [7]) was “decreased”. Moreover, the “11β-HSD1 Reductase (inhibition)” value in series [4] is “Selective Inhibitor”. The “ability of 11-dehydro-corticosterone to amplify the contractile effects of phenylephrine” value in series [2] (setting [7]) is given as “diminished”. Moreover, the “11β-HSD1 Dehydrogenase (inhibition)” value in series [5] is recorded as “No Inhibition”.
Regarding `CC(=O)[C@H]1CC[C@@H]2[C@@H]3CC[C@@H]4C[C@@H](O)CC[C@]4(C)[C@@H]3[C@@H](O)C[C@]12C` [3α,5β-reduced- 11β-OH—progesterone], in series [3], the “11β-HSD2 Dehydrogenase (inhibition)” value is listed as “No Inhibition”. Also, the “11β-HSD1 Reductase (inhibition)” value in series [4] is reported as “No Inhibition”. Also, in series [5], the “11β-HSD1 Dehydrogenase (inhibition)” value is recorded as “Moderate Inhibitor”.
With `CC(=O)[C@H]1CC[C@@H]2[C@@H]3CC[C@@H]4C[C@@H](O)CC[C@]4(C)[C@@H]3C(=O)C[C@]12C` [3α,5α-reduced-11-keto-progesterone], the “11β-HSD2 Dehydrogenase (inhibition)” value in series [3] is on record as “Potent Inhibitor”. Also, in series [4], the “11β-HSD1 Reductase (inhibition)” value is recorded as “Selective Inhibitor”. In series [5], the “11β-HSD1 Dehydrogenase (inhibition)” value was “No Inhibition”.
With `CC(=O)[C@H]1CC[C@@H]2[C@@H]3CC[C@@H]4C[C@@H](O)CC[C@]4(C)[C@@H]3[C@@H](O)C[C@]12C` [3α,5α-reduced- 11β-OH—progesterone], in series [3], the “11β-HSD2 Dehydrogenase (inhibition)” value was “Potent Inhibitor (Non-Selective)”. Moreover, the “11β-HSD1 Reductase (inhibition)” value in series [4] was “No Inhibition”. The “11β-HSD1 Dehydrogenase (inhibition)” value in series [5] is given as “Potent Inhibitor (Non-Selective)”.
On to `C[C@]12CCC(=O)C[C@@H]1CC[C@@H]1[C@@H]2[C@@H](O)C[C@]2(C)[C@@H](C(=O)CO)CC[C@@H]12` [5α-dihydro- corticosterone], for which the “11β-HSD2 Dehydrogenase (inhibition)” value in series [3] was “Potent Inhibitor”. For the same compound, the “11β-HSD1 Reductase (inhibition)” value in series [4] was “No inhibition”. Also, the “11β-HSD1 Dehydrogenase (inhibition)” value in series [5] is on record as “Potent Inhibitor”.
In the case of `C[C@]12CC[C@@H]3[C@@H]([C@@H](O)C[C@]4(C=O)[C@@H](C(=O)CO)CC[C@H]34)[C@@]1(C)CC[C@H](O)C2` [3α,5α-reduced aldosterone], the “11β-HSD2 Dehydrogenase (inhibition)” value in series [3] is given as “Potent Inhibitor”. Besides, the “11β-HSD1 Reductase (inhibition)” value in series [4] was “No Inhibition”. In addition, in series [5], the “11β-HSD1 Dehydrogenase (inhibition)” value was “Moderate Inhibitor”.
